Measured values: US8957035B2, “Toll like receptor (TLR) stimulation for ocular angiogenesis and macular degeneration” (University of Kentucky Research Foundation, priority 2006, dated 2015)
Entries after “also recorded” stand apart in the source; their conditions may differ. d = 2'-deoxy (DNA); r = 2'-OH (RNA)

Experiments:
Format in all cases: in vivo, mouse
[1] = test system: IL-10; test: IL-10 protein ELISA in RPE/choroid after laser injury; conditions: FIG. 4; 2 μg; wild-type mice; 3 days after laser injury
Description: (§1) Laser photocoagulation (532 nm, 200 mW, 100 ms, 75 μm) (OcuLight GL, Iridex Corporation) was performed (volume studies: 3/eye; protein analyses/flow cytometry: 12/eye) on both eyes of each animal to induce CNV (choroidal neovascularization). CNV volumes were measured by scanning laser confocal microscope (TCS SP, Leica) with 0.5% FITC-Griffonia simplicifolia Isolectin B4 (Vector Laboratories) or 0.5% FITC-rat antibody against mouse CD31 (BD Biosciences). Volumes obtained by lectin and CD31 staining were highly correlated (r^2=0.95). […]
(§2) IL-10 and IL-12 protein levels were measured by ELISA (Peprotech) according to the manufacturer's instructions, as were IFN-α, IFN-β and IFN-γ (PBL InterferonSource). Total protein was measured according to Biorad.
(§3) Because the probability of each laser lesion developing CNV is influenced by the group to which it belongs, the mouse, the eye, and the laser spot, the mean lesion volumes were compared using a linear mixed model with a split plot repeated measures design. […] Statistical significance was determined at the 0.05 level. […]

[2] = test system: choroidal neovascularization; test: Laser-induced choroidal neovascularization (CNV) volume in mice; conditions: for effect on choroidal neovascularization (CNV): FIG. 1, 0.2-2 μg, poly I:C vs control poly dI:dC, loxoribine vs control PBS; for ability to suppress CNV in IL-10−/− mice / ability to suppress CNV in IL-12−/− mice: FIG. 6, 2 μg; for ability to suppress CNV in IL-10−/− mice: IL-10−/− mice versus wild-type; for ability to suppress CNV in IL-12−/− mice: IL-12−/− mice versus wild-type; for CNV volume in wild-type mice versus PBS: FIG. 7/8, 0.25 μg into the vitreous humor immediately after laser injury; for CNV in TLR3−/− mice: FIG. 7, differences not statistically significant
Text: All animal experiments were in accordance with the guidelines of the University of Kentucky IACUC and the Association for Research in Vision and Ophthalmology. Male C57BL/6J mice (Jackson Laboratory) between 6 and 8 weeks of age were used to minimize variability. The sources for the other mouse strains were: TLR3−/−, IL-10−/−, IL-12−/−, IFNγ−/− (Jackson Laboratory), IFNAR-1−/− (gift of H. Virgin, Washington University), TLR7−/− (gift of D. Golenback, University of Massachusetts), TLR9−/− (gift of E. Pearlman, Case Western Reserve University), VEGFR1 tyrosine kinase−/− (gift of M. Shibuya, University of Tokyo), Trif−/− (Trif deficient Lps2 mice from The Jackson Laboratories). For all procedures, anesthesia was achieved by intraperitoneal injection of 50 mg/kg ketamine hydrochloride (Ft. Dodge Animal Health) and 10 mg/kg xylazine (Phoenix Scientific), and pupils were dilated with topical 1% tropicamide (Alcon Laboratories).
Laser photocoagulation (532 nm, 200 mW, 100 ms, 75 μm) (OcuLight GL, Iridex Corporation) was performed (volume studies: 3/eye; protein analyses/flow cytometry: 12/eye) on both eyes of each animal to induce CNV (choroidal neovascularization). CNV volumes were measured by scanning laser confocal microscope (TCS SP, Leica) with 0.5% FITC-Griffonia simplicifolia Isolectin B4 (Vector Laboratories) or 0.5% FITC-rat antibody against mouse CD31 (BD Biosciences). Volumes obtained by lectin and CD31 staining were highly correlated (r^2=0.95).
Also tested were shorter non-targeted siRNAs: a 5+2 length nucleotide (5 nucleotides plus a 2 nucleotide overhang, with one strand having the sequence UAAGGdTdT and the other strand having the sequence CCUUAdTdT), and a 11+2 length nucleotide (11 nucleotides plus a 2 nucleotide overhang, with one strand having the sequence […]dTdT and the other strand having the sequence […]dTdT).
Because the probability of each laser lesion developing CNV is influenced by the group to which it belongs, the mouse, the eye, and the laser spot, the mean lesion volumes were compared using a linear mixed model with a split plot repeated measures design. The whole plot factor was the genetic group to which the animal belonged while the split plot factor was the eye. Statistical significance was determined at the 0.05 level. Post hoc comparison of means was constructed with a Bonferroni adjustment for multiple comparisons. ELISA measurements were compared by Student's t-test.

[3] = test system: IL-12; test: IL-12 protein ELISA in RPE/choroid after laser injury; conditions: FIG. 4; 2 μg; wild-type mice; 1 day after laser injury
Description: as §1, §2, §3
IFN-α and IFN-β were measured by ELISA and normalized to total protein. […] IFN-γ was measured by ELISA (PBL InterferonSource) and IL-12 was measured by ELISA (eBioscience) and normalized to total protein. *P<0.05.

[4] = dose-dependent, intravitreous immediately after laser injury, P<0.05

Molecule	IL-10 protein expression in the RPE/choroid [1]	effect on choroidal neovascularization (CNV) [2, 4]	ability to suppress CNV in IL-10−/− mice [2]	ability to suppress CNV in IL-12−/− mice [2]	IL-12 protein expression in the RPE/choroid [3]	CNV volume in wild-type mice versus PBS ([2]; P<0.05)	CNV in TLR3−/− mice ([2]; 0.25 μg intravitreous)	CNV in VEGFR1 tk−/− mice versus PBS ([2]; FIG. 8, 0.25 μg intravitreous, VEGFR1 tyrosine kinase−/− mice, P<0.05)	effect on choroidal neovascularization in wild-type C57BL/6J mice ([2]; FIG. 14, intravitreous immediately after laser injury, dose-dependent, P<0.05)
C=CCn1c(=O)n([C@@H]2O[C@H](CO)[C@@H](O)[C@H]2O)c2nc(N)[nH]c(=O)c21 [Loxoribine]	induced	reduced CNV	markedly reduced	markedly reduced	induced	–	–	–	–
Bevasiranib: siRNA against VEGF-A; sense ACCUCACCAAGGCCAGCACdTdT, antisense GUGCUGGCCUUGGUGAGGUdTdT (sense ACCUCACCAAGGCCAGCACTT; antisense GUGCUGGCCUUGGUGAGGUTT; sugars from the 5' end r19 d2, backbone not given here)	–	–	–	–	–	essentially equally effective in suppressing CNV	non of them suppressed CNV	–	–
Poly I:C	induced	reduced CNV	markedly reduced	markedly reduced	induced	–	–	–	–
Sirna-027: siRNA against VEGFR-1; sense CUGAGUUUAAAAGGCACCCdTdT, antisense GGGUGCCUUUUAAACUCAGdTdT (sense CUGAGUUUAAAAGGCACCCTT; antisense GGGUGCCUUUUAAACUCAGTT; sugars from the 5' end r19 d2, backbone not given here)	–	–	–	–	–	essentially equally effective in suppressing CNV; also recorded: significantly lower than control	non of them suppressed CNV	suppressed CNV	–
recombinant mouse IFNγ: recombinant mouse IFNγ (eBioscience)	–	–	–	–	–	–	–	–	reduced choroidal neovascularization
